Measurements published in publication PMC11391341, “Rational design and in vitro testing of new urease inhibitors to prevent urinary catheter blockage” (RSC Medicinal Chemistry, 2024).
Entries after “also recorded” stand apart in the source; their conditions may differ. Like-named read-outs stand apart in the source and are kept apart here.

Columns and labels:
[1] = target: T1, urease expressed in whole cell Proteus mirabilis (Proteus mirabilis, UniProt P17086); experiment: Urease activity assay (Berthelot), whole-cell P. mirabilis; format: cell-based; settings: for A1 (dose-response fit parameter) / A2 (dose-response fit parameter): % urease activity; for A1 (dose-response fit parameter) / A2 (dose-response fit parameter) / LOGx0 (dose-response fit): Proteus mirabilis whole cell, Supplementary Table 3; for fold lower IC50 than AHA: whole cell P. mirabilis urease
T1 construct: Urease in P. mirabilis is intracellular; endogenous in cells; host or cells: Proteus mirabilis B4 (Jenkins Group collection, University of Bath), whole cells
Experimental: The in vitro assay used to measure the urease activity was the Berthelot assay, which measure the accumulation of ammonia.[54,55] Compounds were tested using whole-cell P. mirabilis B4 (from the Jenkins Group collection, University of Bath). P. mirabilis was cultured overnight, 37 °C with 200 rpm shaking in 10 mL of Luria-Bertani broth (LB, Merck, Germany). The overnight culture was centrifuged, 3100 g, 10 min, at 4 °C (5810 R Eppendorf); the supernatant was discarded, and the pellet resuspended in phosphate buffer saline (PBS, Fisher Scientific, UK). In each well of a 96-well plate (Corning) 10 μL of 0.5% sulfuric acid was added. P. mirabilis (100 μL, 0.004 mg mL^−1) in phosphate buffer was incubated with the desired compound concentration and urea (100 μL, 50 mM in phosphate buffer) for 30 min at 37 °C.
Experiments were run in triplicate of two technical replicates (n = 6), with 10-fold dilutions of the compounds including a positive and negative control. To each well, 20 μL of 60 mM sodium hydroxide is added. Solution A (50 μL, 106 mM phenol, 191 μM sodium nitroprusside) and solution B (50 μL, 125 mM sodium hydroxide, 125 mM sodium hypochlorite) were added to each well and the plate was incubated for 30 min at 37 °C. The absorbance of the wells was read at 636 nm (SPECTROstar Omega BMG LabTech, Germany). Urease activity was calculated using eqn (1). IC50 was determined using non-linear regression (GraphPad Prism v9).1 [drawing 1]

P. mirabilis B4 [2] = experiment: Minimum inhibitory concentration (MIC) assay, P. mirabilis; format: cell-based, Proteus mirabilis
Experimental: (§1) The compound was dissolved in sterile water with 5% (v/v) DMSO. To the first column on a 96-well plate (Corning, UK), 200 μL of compound was added, it was then serially diluted two-fold (100 μL) across the plate to column 10. A subculture of P. mirabilis (1 × 10^6 CFU mL^−1) or E. coli NSM59 (1 × 10^6 CFU mL^−1, from the Jenkins Group collection, University of Bath), 100 μL, was added to all columns 1–10. LB broth only was added to column 11, the negative control and 200 μL of P. mirabilis/E. coli subculture was added to column 12, the positive control. The plate was incubated at 37 °C for 18 h, using a SPECTROstar Omega plate reader (BMJ LabTech) the absorbance at 600 nm was measured at regular time points during the 18 h incubation. The plate was shaken for 10 s, at 200 rpm prior to a reading being taken. The MIC was defined as the lowest concentration of compound that inhibited growth and the highest concentration that permitted bacterial growth. Initially, this was done through visualization of the plate after 18 h but also through examination of the growth curves measured at OD600.

E. coli NSM59 = experiment: Minimum inhibitory concentration (MIC) assay, E. coli; format: cell-based, Escherichia coli
Experimental: as §1

[3] = Delivery across the catheter balloon into artificial urine (UV-vis); format: physicochemical; settings: 37 °C, 12 h
Experimental: Delivery through the permeable balloon was measured using UV-vis spectroscopy with a quartz cuvette (pathlength 1 cm) (Agilent Cary 60 UV-vis spectrometer). Calibration curves for AHA (Sigma) and N,N′-bis(3-pyridinylmethyl)thiourea (Flurochem, Bis-TU (A11)) were prepared using absorbances 235 nm and 239 nm, respectively (Fig. S5 ^†). Sterile 50 mL beakers were used to mimic the bladder; catheters were inflated with compound solutions, AHA (320 mM) or Bis-TU (85 mM). Biomodics IPN catheters were compared to standard all-silicone catheters (Tiga-Med, Germany). Beakers were filled with artificial urine, prepared according to Nzakizwanayo et al., 30 mL was added to the beakers which were sealed with parafilm and incubated at 37 °C.[45] Every hour for 12 h, 1 mL was removed from the artificial urine surrounding the catheter balloon and the absorbance spectra was measured. The 1 mL was returned to the beaker, so the volume remained constant. The quantity of compound released over time was determined using the calibration curves. Limit of detection (LOD) was calculated by eqn (2), where σ is the standard deviation of the lowest concentration.2 [drawing 2]

P. mirabilis B4 [4] = experiment: In vitro bladder model of the catheterized urinary tract; format: cell-based, Proteus mirabilis; settings: balloon inflated with 20 mM compound, Biomodics IPN catheter
Experimental: The in vitro bladder model of a catheterized urinary tract enables the simulation of the crystalline biofilm and measurement of the blockage of the catheter caused by a P. mirabilis infection.[44,45] The artificial bladders were infected with a high inoculum of bacteria to mimic a late-stage CAUTI, average inoculation was 3.36 × 10^7 CFU mL^−1. Each model was catheterized with a Biomodics IPN catheter, and the balloons were inflated with 20 mM AHA in a 9 : 1 mixture of saline and DMSO; 20 mM Bis-TU in a 9 : 1 mixture of saline and DMSO; and the control bladder a 9 : 1 mixture of saline and DMSO. The artificial bladders were allowed to equilibrate over 18 h before inoculation. There is approximately a four-fold dilution during the diffusion of the compound in the artificial urine (∼5 mM at the start), however, this concentration changes once the pumps start because of the continual dilution from the filling of the bladder from the ‘kidneys’ and the drainage via the catheter. Monitoring of the pH and CFU mL^−1 in the bladder allowed tracking of the experiment (Fig. 6A and B). […] The blockage of the catheters was the end of the experiment and allowed determination of whether the compounds could increase the lifetime of the catheter (Fig. 6C).
In vitro bladder models were set up as described by Nzakizwanayo et al., the flow rate was set to run at 0.8 mL min^−1 using a Watson-Marlow 323S/D (030.3134.3DU) pump.[45] The artificial bladders were maintained at 37 °C and catheterized with Biomodics IPN catheters (donated by Biomodics ApS). Balloons were inflated with 10 mL of the following solutions: control bladder: a 9 : 1 mixture of saline (150 mM sodium chloride) and DMSO; Bis-TU bladder: 20 mM Bis-TU in a 9 : 1 mixture of saline and DMSO; and AHA bladder: 20 mM AHA in a 9 : 1 mixture of saline and DMSO. The models were set up and filled with artificial urine until they started to drain, the pump was then paused, and the compound solution allowed to equilibrate with the artificial urine in the bladder for 18 h. P. mirabilis B4 (from the Jenkins Group bacteria collection) was grown at 37 °C overnight with 200 rpm shaking in 10 mL of LB (Merck, Germany). […] Inoculation and CFU was determined by the Miles and Misra quantification technique.[56] At regular time intervals during the experiment, a sample was taken aseptically from each artificial bladder for bacterial quantification and to measure the pH. The end of the experiment was determined when the bladders blocked. Additionally, the artificial bladders were monitored by time-lapse photography overnight using a Nikon D3100 camera with photos taken every 2 min.

HepG2 cells = experiment: HepG2 mammalian cell viability (MTT assay); format: cell-based; settings: for survival of HepG2 cells: 10 mM, 24 h incubation
Experimental: Freezer stocks of HepG2 cells were defrosted and re-suspended in Dulbecco's Eagle medium (DMEM) complete (Gibco, this contains minimum essential media (MEM, Gibco)). A T75 flask (Nunc) was seeded with 10 mL of complete DMEM. Cells were grown for 3–4 days, a 37 °C, 5% CO2, to achieve adherent cells. Old media was removed and 5 mL of PBS added to wash the cells, this was then aspirated. Cells were incubated with 3 mL, 0.25% trypsin (Gibco), and PBS (previously warmed to 37 °C) for 7 min at 37 °C. After incubation cells were checked using a microscope (Nikon TMS inverted phase contrast) to confirm that they were no longer adherent. Cells were dissociated with 4 mL of media and re-suspended by pipetting 10 mL approximately 20 times. Cells were centrifuged for 3 min at 1000 rpm, media was aspirated, and pellet was resuspended in 1 mL of media. Cells were counted using a hemocytometer and new flasks were reseeded with 200 μL of cells to 10 mL of media. To maintain stocks, cells were sub-cultured every 2–3 days.
Compounds, AHA and Bis-TU, were prepared at 10 mM with 1% DMSO in DMEM media. Varying concentrations of compounds were prepared by serial dilution across at 96-well plate (100 μL). MTT (Invitrogen) assay was used to measure the metabolic activity of the HepG2 cells. MTT (1 mg mL^−1) in media was filter sterilized and cell culture plates, 96-well (Nunc), were seeded with 1 × 10^4 cells per well and grown for 24 h. Media/compound was removed and MTT (100 μL) was added for 60 min at 37 °C and then removed. Isopropanol (150 μL) was added and the plate was incubated in foil for 15 min on an orbital shaker. Absorbance was measured at 590 nm (reference filter at 620 nm) (Sunrise, Tecan). The % survival was calculated as per eqn (4).4 [drawing 4]

[5] = Solubility (statement in conclusions); format: physicochemical

T1 sequence (P17086 whole entry): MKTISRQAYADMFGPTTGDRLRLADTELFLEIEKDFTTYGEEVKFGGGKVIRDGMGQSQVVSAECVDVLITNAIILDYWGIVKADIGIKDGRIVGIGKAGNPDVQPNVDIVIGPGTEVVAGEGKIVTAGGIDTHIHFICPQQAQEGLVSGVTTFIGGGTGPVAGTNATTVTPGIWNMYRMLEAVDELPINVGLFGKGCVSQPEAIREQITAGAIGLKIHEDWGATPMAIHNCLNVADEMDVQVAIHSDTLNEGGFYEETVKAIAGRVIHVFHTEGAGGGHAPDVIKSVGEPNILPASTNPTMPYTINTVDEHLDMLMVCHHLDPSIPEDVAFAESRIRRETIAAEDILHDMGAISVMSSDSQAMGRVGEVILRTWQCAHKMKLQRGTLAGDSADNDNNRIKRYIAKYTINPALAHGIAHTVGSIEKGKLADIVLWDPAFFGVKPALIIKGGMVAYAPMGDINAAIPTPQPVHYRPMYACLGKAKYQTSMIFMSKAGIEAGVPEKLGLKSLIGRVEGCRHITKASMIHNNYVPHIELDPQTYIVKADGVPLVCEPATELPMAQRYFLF

O=c1c(O)c(-c2ccc(O)c(O)c2)oc2cc(O)cc(O)c12 [Quercetin, quercetin, reference compound]
IC50 [1]: 0.866 µM
A1 (dose-response fit parameter) [1]: -6.874%
A2 (dose-response fit parameter) [1]: 68.53%
fold lower IC50 than AHA [1]: ca. 25 fold

Acetohydroxamic acid [AHA, reference compound]
A1 (dose-response fit parameter) [1]: 1.739%
A2 (dose-response fit parameter) [1]: 91.3%
LOGx0 (dose-response fit) [1]: -4.436
IC50 ([1]; whole cell Proteus mirabilis, ± standard deviation, read-out: IC50): 36.6 µM
inhibitory effect on growth (P. mirabilis B4 [2]): only a modest inhibitory effect
inhibitory effect on growth (E. coli NSM59): only a modest inhibitory effect
release across balloon of Biomodics IPN catheter [3]: zero order kinetics release
release across balloon of standard silicone catheter [3]: no release
quantity of bacteria (CFU mL^−1) in the bladder model (P. mirabilis B4 [4]): comparable across all bladders
survival of HepG2 cells (HepG2 cells): affect the survival

NC(=O)CS [Compound 2-MA, 2-mercaptoacetamide, reference compound]
IC50 ([1]; whole cell Proteus mirabilis, ± standard deviation): did not fit to a sigmoidal dose–response curve; also recorded: No fit

NC(=S)NCc1ccccc1 [Compound A6, benzylthiourea]
IC50 [1]: 22.7 µM
A1 (dose-response fit parameter) [1]: 5.57%
A2 (dose-response fit parameter) [1]: 78.71%
LOGx0 (dose-response fit) [1]: -4.644

S=C(NCc1cccnc1)NCc1cccnc1 [Compound A11, N,N′-bis(3-pyridinylmethyl)thiourea]
IC50 [1]: 1.4 µM
A1 (dose-response fit parameter) [1]: -6.896%
A2 (dose-response fit parameter) [1]: 85.9%
LOGx0 (dose-response fit) [1]: -5.851
fold lower IC50 than AHA [1]: ca. 25 fold
inhibitory effect on growth (P. mirabilis B4 [2]): only a modest inhibitory effect
inhibitory effect on growth (E. coli NSM59): only a modest inhibitory effect
release across balloon of Biomodics IPN catheter [3]: zero order kinetics release
release across balloon of standard silicone catheter [3]: no release
catheter blockage time (lifetime of the catheter) (P. mirabilis B4 [4]): significantly outperformed the clinical standard AHA, and the control
pH in the bladder model (P. mirabilis B4 [4]): lower than that of the AHA and control bladders
quantity of bacteria (CFU mL^−1) in the bladder model (P. mirabilis B4 [4]): comparable across all bladders
survival of HepG2 cells (HepG2 cells): affect the survival
effect on HepG2 cells, AHA vs Bis-TU (HepG2 cells; concentrations below 1.25 mM, 24 h): no difference
solubility [5]: relatively low solubility

NC(=S)Nc1ccccc1 [Compound A5, N-phenylthiourea]
IC50 [1]: 9.66 µM
A1 (dose-response fit parameter) [1]: -2834%
A2 (dose-response fit parameter) [1]: 141.8%
LOGx0 (dose-response fit) [1]: -5.015
